Reference: PubChem BioAssay (NCI)
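48-hour exposure; five concentrations; linearly interpolated endpoints. TGI denotes the concentration required for complete inhibition of growth.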 Where a SMILES comes first, the peptide text is derived from it. [ ]: non-standard residue; d: D form. The star is where a group is joined. Octanoyl = CCCCCCCC(=O)*; Aib = CC(C)(N)C(=O)O; tBu = CC(C)(C)*

Key:
Assay in all cases: NCI-60 cell line screen, 48 h
[1] = tested on: ACHN renal
[2] = tested on: COLO 205 colon
[3] = tested on: DU-145 prostate
[4] = tested on: HCT-15 colon
[5] = tested on: LOX IMVI melanoma
[6] = tested on: M14 melanoma
[7] = tested on: MCF7 breast
[8] = tested on: MDA-N
[9] = tested on: NCI-H23 lung
[10] = tested on: RPMI-8226 leukemia
[11] = tested on: SF-268 CNS
[12] = tested on: SF-539 CNS
[13] = tested on: TK-10 renal
[14] = tested on: U251 CNS
[15] = tested on: UACC-62 melanoma
[16] = tested on: UO-31 renal

Compound | TGI [1] | TGI [2] | TGI [3] | TGI [4] | TGI [5] | TGI [6] | TGI [7] | TGI [8] | TGI [9] | TGI [10] | TGI [11] | TGI [12] | TGI [13] | TGI [14] | TGI [15] | TGI [16]
CCOC(=O)c1c(-c2ccc(OC)cc2)c(C#N)c(=S)n(C2OC(CO)C(O)C(O)C2O)c1-c1ccccc1 (centres undefined) | > 100 µM | > 100 µM | > 100 µM | > 100 µM | > 100 µM | > 100 µM | > 100 µM | > 100 µM | > 100 µM | > 100 µM | > 100 µM | > 100 µM | > 100 µM | > 100 µM | > 100 µM | > 100 µM
CC(=O)OCC1OC(n2c(N)c(C#N)c(-c3ccc(C)cc3)c(C#N)c2=S)C(OC(C)=O)C(OC(C)=O)C1OC(C)=O (centres undefined) | > 100 µM | 29.4 µM | 28.7 µM | > 100 µM | > 100 µM | 30 µM | 51.3 µM | 30.9 µM | 51.9 µM | 80 µM | 28.5 µM | 19.2 µM | 37.9 µM | 30.6 µM | > 100 µM | 31.8 µM
CCCCCCCC(=O)NC(C)(C)C(=O)NC(COC(C)(C)C)C(=O)NC(CC(C)C)C(=O)NC(C)(C)C(=O)NC(COC(C)(C)C)C(=O)NC(COC(C)(C)C)C(=O)NC(CC(C)C)C(=O)NC(C)(C)C(=O)NC(COC(C)(C)C)C(=O)NC(C(=O)NC(CC(C)C)C(=O)OC)C(C)CC (centres undefined) (Octanoyl-[Aib]S(tBu)L[Aib]S(tBu)S(tBu)L[Aib]S(tBu)IL-OMe; configuration not given here) | 20.8 µM | 15.8 µM | > 25 µM | > 25 µM | 10.6 µM | > 25 µM | 17 µM | > 25 µM | 12.7 µM | 11.2 µM | > 25 µM | > 25 µM | 21.8 µM | 12.8 µM | 23.7 µM | > 25 µM
COc1cc([N+](=O)[O-])ccc1NC1=CC(=O)CCC1 | > 100 µM | > 100 µM | > 100 µM | > 100 µM | > 100 µM | > 100 µM | > 100 µM | > 100 µM | > 100 µM | > 100 µM | > 100 µM | > 100 µM | > 100 µM | > 100 µM | > 100 µM | > 100 µM
c1cncc(-c2ncc3cccnc3n2)c1 | > 100 µM | > 100 µM | > 100 µM | > 100 µM | > 100 µM |  | > 100 µM | > 100 µM | > 100 µM | > 100 µM |  | > 100 µM | > 100 µM | > 100 µM | > 100 µM | > 100 µM
O=C(OCC1OC(c2nn[nH]n2)C(OC(=O)c2ccccc2)C1OC(=O)c1ccccc1)c1ccccc1 (centres undefined) | > 100 µM | > 100 µM | > 100 µM | > 100 µM | > 100 µM |  | > 100 µM | > 100 µM | > 100 µM | > 100 µM | > 100 µM | > 100 µM | > 100 µM | > 100 µM | > 100 µM | > 100 µM
COC(=O)C1(Cc2ccccc2)Cc2ccc3c(c2C1=O)CCC3 (centres undefined) | > 100 µM | > 62.5 µM | > 100 µM | > 100 µM | > 64 µM | 97.7 µM | > 100 µM | > 86.4 µM | > 78.6 µM | > 90.3 µM | > 100 µM | > 76.9 µM | > 84 µM | > 100 µM | > 100 µM | > 100 µM
COc1nc2sc3c(c2c(=O)n1CCCSSCCCn1c(OC)nc2sc4c(c2c1=O)CCCC4)CCCC3 | > 100 µM | > 100 µM | > 100 µM | > 100 µM | > 100 µM | > 100 µM | > 100 µM | > 100 µM | > 100 µM | > 100 µM |  | > 100 µM | > 100 µM | > 100 µM | > 100 µM | > 100 µM
Oc1ccc(Cn2c(-c3ccc(O)c(O)c3)nc3ccccc32)cc1O | 60.2 µM | 31.1 µM | 66.9 µM | > 100 µM | 26 µM | 42.2 µM | > 100 µM | > 100 µM | 75.4 µM | 46.1 µM | > 100 µM | 24.1 µM | 38 µM | 47.1 µM |  | 47.3 µM
S=C(S)N1CCN(c2ccc(Cl)c(Cl)c2)CC1 | > 100 µM | 33.6 µM | 57 µM | > 100 µM | 31.6 µM | 40.7 µM | 70.9 µM | 35 µM |  | 45.8 µM | > 100 µM | 59.4 µM | > 100 µM | 90.7 µM |  | 
Cc1cccc(-c2cc(=S)c3cc(N4CCCC4)ccc3[nH]2)c1 | > 100 µM | > 100 µM | > 100 µM | > 100 µM | > 100 µM | > 100 µM | > 100 µM | > 100 µM |  | > 100 µM | > 100 µM | > 100 µM | > 100 µM | > 100 µM | > 100 µM | > 100 µM
CN(C1=NCCO1)c1cccc2c1CCCC2 | 8.09 µM | 3.4 µM | > 10 µM | > 10 µM | 5.27 µM | 6.09 µM | > 10 µM | > 10 µM | 8.81 µM | > 10 µM | > 10 µM | > 10 µM | > 10 µM | > 10 µM | > 10 µM | 
O=C(O)c1ccc(C(c2c(O)c3ccccc3oc2=O)c2c(O)c3ccccc3oc2=O)cc1 | > 100 µM | > 100 µM | > 100 µM | > 100 µM | > 100 µM | > 100 µM | > 100 µM | > 100 µM | > 100 µM | > 100 µM | > 100 µM | > 100 µM |  | > 100 µM | > 100 µM | > 100 µM
Cc1[nH]c(=O)nc(NCCNCCO)c1C(=O)Nc1c2ccccc2nc2ccccc12 | > 100 µM | > 100 µM | > 100 µM | > 100 µM | > 100 µM | > 100 µM | > 100 µM | > 100 µM | > 100 µM | > 100 µM |  | > 100 µM | > 100 µM | > 100 µM | > 100 µM | > 100 µM
C=C1c2nc3ccccc3n2C=C(c2ccccc2)N1c1ccccc1 | > 100 µM | > 100 µM | > 100 µM | 51.9 µM | > 100 µM | > 100 µM | > 100 µM | > 100 µM | > 100 µM | > 100 µM |  | > 100 µM | > 100 µM | > 100 µM | > 100 µM | > 100 µM
N#CCCN(CCC#N)c1ccc(/C=C2\N=C(c3ccccc3)N(c3ccccn3)C2=O)cc1 | > 100 µM | > 100 µM | > 100 µM | > 100 µM | > 100 µM | > 100 µM | > 100 µM | > 100 µM |  | > 100 µM | > 100 µM | > 100 µM | > 100 µM | > 100 µM | > 100 µM | > 100 µM
N#CC(c1cc2c(cc1Br)OCO2)N1CCOCC1 (centres undefined) | > 100 µM | > 100 µM | > 100 µM |  | > 100 µM | > 100 µM | > 100 µM | > 100 µM | > 100 µM | > 100 µM | > 100 µM | 92.1 µM | > 100 µM |  | > 100 µM | > 100 µM
N/N=C1/CCCc2nonc21 | > 100 µM | > 100 µM | > 100 µM | > 100 µM | > 100 µM | > 100 µM | > 100 µM | > 100 µM | > 100 µM | > 100 µM | > 100 µM | > 100 µM | > 100 µM | > 100 µM | > 100 µM | 
CC(NC(=O)OC(C)(C)C)C(=O)C(N)=O (centres undefined) | > 100 µM | > 100 µM | > 100 µM | > 100 µM | > 100 µM | > 100 µM | > 100 µM | > 100 µM | > 100 µM | > 100 µM | > 100 µM | > 100 µM | > 100 µM | > 100 µM |  | > 100 µM
O=[N+]([O-])c1cc(-[n+]2cc([O-])on2)ccc1F | 30.7 µM | 35.2 µM | 25.4 µM | 52.8 µM | 31.1 µM | 29.6 µM | 29.4 µM | 30.7 µM | 33.5 µM | > 100 µM | 28.9 µM |  | 33.1 µM | 32.4 µM | 30.8 µM | 13.1 µM
CCOC(=O)c1[nH]c2ccccc2c1C(=O)C[C@H](NC(=O)C(F)(F)F)C(=O)OC | > 100 µM | > 100 µM | > 100 µM | > 100 µM | > 100 µM | > 100 µM | > 100 µM | > 100 µM | > 100 µM | > 100 µM | > 100 µM | > 100 µM | > 100 µM | > 100 µM |  | > 100 µM
COC(=O)CCn1cnc2c(SC)ncnc21 | > 100 µM | > 100 µM | > 100 µM |  | > 100 µM | > 100 µM | > 100 µM | > 100 µM | > 100 µM | > 100 µM | > 100 µM | > 100 µM | > 100 µM |  | > 100 µM | > 100 µM
c1ccc(/N=N/Nc2ccc(-c3nc4ccccc4[nH]3)cc2)nc1 | 34.2 µM | > 100 µM | 27.7 µM | 69.9 µM | 43.7 µM | > 100 µM | 23.4 µM | 34.7 µM | 95.8 µM | 11.6 µM |  | 31.3 µM | 35.6 µM | 30.1 µM |  | 49.3 µM
